Source: ChEMBL document CHEMBL5154770, “Discovery of novel ataxia telangiectasia mutated (ATM) kinase modulators: Computational simulation, biological evaluation and cancer combinational chemotherapy study” (Eur J Med Chem, 2022)
Active and inactive are the calls of the source. The rule behind the calls is not given here.

Tests used:
MCF7 [1] = experiment: Induction of apoptosis in human MCF7 cells at 62 nM in presence of 50 nM AZD0156 measured after 6 days by Annexin V-FITC/propidium iodide staining based flow cytometry analysis; type: functional, cell-based; settings: time 6.0 day
[2] = molecular target: T1, Serine-protein kinase ATM (Homo sapiens, UniProt Q13315); experiment: Inhibition of ATM (unknown origin) assessed as decrease in phosphorylation of p21 at 25 uM measured in presence of 5 uM KU60019 by Western blot analysis
T1 sequence (Q13315 whole entry): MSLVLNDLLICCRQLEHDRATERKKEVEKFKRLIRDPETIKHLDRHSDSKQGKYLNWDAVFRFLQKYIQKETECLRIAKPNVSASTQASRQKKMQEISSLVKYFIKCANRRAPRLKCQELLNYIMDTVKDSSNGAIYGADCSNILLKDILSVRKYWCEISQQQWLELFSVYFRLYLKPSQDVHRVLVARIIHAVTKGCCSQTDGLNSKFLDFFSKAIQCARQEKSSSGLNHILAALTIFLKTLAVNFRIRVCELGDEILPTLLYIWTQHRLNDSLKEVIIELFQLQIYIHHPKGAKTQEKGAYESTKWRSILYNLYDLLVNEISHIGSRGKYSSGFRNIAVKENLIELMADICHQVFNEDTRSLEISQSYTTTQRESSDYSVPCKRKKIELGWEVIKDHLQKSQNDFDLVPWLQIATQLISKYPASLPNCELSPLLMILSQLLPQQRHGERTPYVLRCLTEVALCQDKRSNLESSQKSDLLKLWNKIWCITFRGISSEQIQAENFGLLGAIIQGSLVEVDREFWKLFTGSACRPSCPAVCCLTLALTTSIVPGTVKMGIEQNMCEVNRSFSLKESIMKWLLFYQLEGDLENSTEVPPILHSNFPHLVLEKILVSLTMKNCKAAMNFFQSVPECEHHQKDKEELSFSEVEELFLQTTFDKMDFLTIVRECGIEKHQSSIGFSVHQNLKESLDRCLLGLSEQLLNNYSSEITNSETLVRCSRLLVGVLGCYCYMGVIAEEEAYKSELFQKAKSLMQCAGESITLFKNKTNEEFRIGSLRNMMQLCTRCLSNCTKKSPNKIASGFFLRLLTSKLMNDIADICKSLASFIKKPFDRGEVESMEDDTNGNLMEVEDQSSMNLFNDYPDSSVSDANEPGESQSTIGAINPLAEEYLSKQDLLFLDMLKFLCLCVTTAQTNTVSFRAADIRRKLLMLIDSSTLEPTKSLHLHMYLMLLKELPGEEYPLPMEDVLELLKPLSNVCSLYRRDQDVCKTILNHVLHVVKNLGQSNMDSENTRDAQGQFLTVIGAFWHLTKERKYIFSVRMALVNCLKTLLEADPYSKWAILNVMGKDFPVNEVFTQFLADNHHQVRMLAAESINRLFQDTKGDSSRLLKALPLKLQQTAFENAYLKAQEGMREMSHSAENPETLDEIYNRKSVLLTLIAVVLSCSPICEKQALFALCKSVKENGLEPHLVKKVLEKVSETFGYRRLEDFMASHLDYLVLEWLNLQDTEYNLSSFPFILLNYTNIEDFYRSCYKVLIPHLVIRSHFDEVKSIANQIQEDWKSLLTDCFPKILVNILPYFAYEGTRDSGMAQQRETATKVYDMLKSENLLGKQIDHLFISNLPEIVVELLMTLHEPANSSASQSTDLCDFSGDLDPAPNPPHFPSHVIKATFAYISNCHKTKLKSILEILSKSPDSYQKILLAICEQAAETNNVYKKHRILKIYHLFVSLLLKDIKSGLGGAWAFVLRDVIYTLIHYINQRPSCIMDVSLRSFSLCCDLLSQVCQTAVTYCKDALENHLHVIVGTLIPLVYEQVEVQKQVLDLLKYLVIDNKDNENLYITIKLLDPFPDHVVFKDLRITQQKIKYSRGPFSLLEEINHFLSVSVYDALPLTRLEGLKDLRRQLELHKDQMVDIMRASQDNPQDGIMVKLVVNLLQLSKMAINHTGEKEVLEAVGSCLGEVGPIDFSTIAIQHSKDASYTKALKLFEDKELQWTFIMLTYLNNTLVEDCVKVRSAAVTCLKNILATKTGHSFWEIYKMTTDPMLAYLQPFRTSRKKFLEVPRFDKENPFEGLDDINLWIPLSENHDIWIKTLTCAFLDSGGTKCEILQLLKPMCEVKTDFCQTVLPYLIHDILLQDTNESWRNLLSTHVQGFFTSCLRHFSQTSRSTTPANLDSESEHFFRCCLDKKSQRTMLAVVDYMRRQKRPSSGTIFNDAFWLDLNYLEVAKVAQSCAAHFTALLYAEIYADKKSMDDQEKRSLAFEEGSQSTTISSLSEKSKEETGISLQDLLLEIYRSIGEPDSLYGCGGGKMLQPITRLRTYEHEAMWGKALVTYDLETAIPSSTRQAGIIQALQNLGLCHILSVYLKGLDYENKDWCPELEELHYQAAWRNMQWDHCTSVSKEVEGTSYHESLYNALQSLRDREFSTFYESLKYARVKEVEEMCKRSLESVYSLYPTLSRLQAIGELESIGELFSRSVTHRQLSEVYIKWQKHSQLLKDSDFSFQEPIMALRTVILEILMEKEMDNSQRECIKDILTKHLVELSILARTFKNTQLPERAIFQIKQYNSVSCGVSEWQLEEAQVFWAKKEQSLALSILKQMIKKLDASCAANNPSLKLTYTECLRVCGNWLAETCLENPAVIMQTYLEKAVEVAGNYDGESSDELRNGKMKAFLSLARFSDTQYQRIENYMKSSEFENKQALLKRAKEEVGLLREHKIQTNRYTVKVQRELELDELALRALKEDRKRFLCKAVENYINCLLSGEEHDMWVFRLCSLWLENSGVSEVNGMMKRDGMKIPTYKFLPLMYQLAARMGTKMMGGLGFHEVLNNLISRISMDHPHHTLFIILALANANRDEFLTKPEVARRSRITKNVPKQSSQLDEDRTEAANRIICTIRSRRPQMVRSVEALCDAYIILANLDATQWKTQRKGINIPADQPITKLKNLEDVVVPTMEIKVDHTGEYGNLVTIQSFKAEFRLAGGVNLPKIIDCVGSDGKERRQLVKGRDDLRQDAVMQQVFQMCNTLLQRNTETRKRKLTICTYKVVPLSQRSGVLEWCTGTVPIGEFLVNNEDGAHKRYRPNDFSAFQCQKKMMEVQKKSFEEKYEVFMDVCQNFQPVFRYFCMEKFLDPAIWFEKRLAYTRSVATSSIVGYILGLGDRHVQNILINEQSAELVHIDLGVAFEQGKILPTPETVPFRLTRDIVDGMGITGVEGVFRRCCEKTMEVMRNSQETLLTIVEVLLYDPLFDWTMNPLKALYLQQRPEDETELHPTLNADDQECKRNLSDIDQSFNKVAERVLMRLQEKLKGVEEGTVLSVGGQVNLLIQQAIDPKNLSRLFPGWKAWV

NCI-H1299 [3] = experiment: Synergistic cytotoxicity against human NCI-H1299 cells assessed as combination index measured in presence of 5 uM KU60019 after 2 days by SRB assay; type: functional; settings: time 2 day
[4] = molecular target: T1, Serine-protein kinase ATM; experiment: Inhibition of ATM (unknown origin) assessed as decrease in phosphorylation of KAP1 at 25 uM measured in presence of 50 nM AZD0156 by Western blot analysis
[5] = molecular target: T1, Serine-protein kinase ATM; experiment: Inhibition of ATM (unknown origin) assessed as decrease in phosphorylation of ATM at 25 uM measured in presence of 1 to 5 uM KU60019 by Western blot analysis
[6] = molecular target: T1, Serine-protein kinase ATM; experiment: Inhibition of ATM (unknown origin) assessed as decrease in phosphorylation of p21 at 25 uM measured in presence of 1 uM KU60019 by Western blot analysis
MCF7 [7] = experiment: cells; settings: Homo sapiens, MCF7, 144 h
MCF7 [8] = experiment: Synergistic cytotoxicity against human MCF7 cells assessed as combination index measured after 6 days in presence of 5 uM KU55933 by SRB assay; type: functional; settings: time 6 day
MCF7 [9] = experiment: Induction of cell cycle arrest in human MCF7 cells assessed as accumulation of cells at S-phase in presence of 5 uM KU60019 measured after 24 hrs by PI staining based flow cytometric analysis; type: functional
NCI-H1299 [10] = experiment: Synergistic cytotoxicity against human NCI-H1299 cells assessed as combination index measured in presence of 50 nM AZD0156 after 2 days by SRB assay; type: functional; settings: time 2 day
SW480 [11] = experiment: Synergistic cytotoxicity against human SW480 cells measured after 9 days in presence of 50 nM AZD0156 by SRB assay; type: functional, cell-based; settings: SW480, 216 h
SW480 [12] = experiment: Synergistic cytotoxicity against human SW480 cells assessed as combination index measured after 9 days in presence of 5 uM KU60019 by SRB assay; type: functional; settings: time 9 day
[13] = molecular target: T1, Serine-protein kinase ATM; experiment: Inhibition of ATM (unknown origin) assessed as decrease in phosphorylation of KAP1 at 25 uM measured in presence of 1 to 5 uM KU60019 by Western blot analysis
MCF7 [14] = experiment: Induction of apoptosis in human MCF7 cells at 62 nM in presence of 1 to 5 uM KU60019 measured after 6 days by Annexin V-FITC/propidium iodide staining based flow cytometry analysis; type: functional, cell-based; settings: time 6.0 day
MCF7 [15] = experiment: Synergistic cytotoxicity against human MCF7 cells assessed as combination index in presence of 10 uM 3-Chloro-4-methoxy-N-((4-(oxazolo[4,5-b]pyridin-2-yl)phenyl)carbamothioyl)benzamide measured after 2 days by SRB assay; type: functional; settings: time 2 day
MCF7 [16] = experiment: Induction of cell cycle arrest in human MCF7 cells assessed as decrease in accumulation of cells at G1-phase in presence of 5 uM KU60019 measured after 24 hrs by PI staining based flow cytometric analysis; type: functional
[17] = molecular target: T1, Serine-protein kinase ATM; experiment: Inhibition of ATM (unknown origin) assessed as decrease in phosphorylation of p21 at 25 uM measured in presence of 50 nM AZD0156 by Western blot analysis
NCI-H1299 [18] = experiment: Synergistic cytotoxicity against human NCI-H1299 cells measured in presence of 50 nM AZD0156 after 2 days by SRB assay; type: functional, cell-based; settings: NCI-H1299, 48 h
SW480 [19] = experiment: Antagonistic cytotoxicity against human SW480 cells measured after 3 days in presence of 50 nM AZD0156 by SRB assay; type: functional, cell-based; settings: SW480, 72 h
MCF7 [20] = experiment: Additive cytotoxicity against human MCF7 cells assessed as combination index in presence of 10 uM 3-Chloro-4-methoxy-N-((4-(oxazolo[4,5-b]pyridin-2-yl)phenyl)carbamothioyl)benzamide measured after 6 days by SRB assay; type: functional; settings: time 6 day
[21] = molecular target: T1, Serine-protein kinase ATM; experiment: Inhibition of ATM (unknown origin) assessed as decrease in phosphorylation of ATM at 25 uM measured in presence of 50 nM AZD0156 by Western blot analysis
NCI-H1299 [22] = experiment: Synergistic cytotoxicity against human NCI-H1299 cells measured in presence of 5 uM KU60019 after 2 days by SRB assay; type: functional, cell-based; settings: NCI-H1299, 48 h
MCF7 [23] = experiment: Induction of cell cycle arrest in human MCF7 cells assessed as accumulation of cells at S-phase measured after 24 hrs by PI staining based flow cytometric analysis; type: functional; settings: DDE = dose-dependent effect
MCF7 [24] = experiment: cells; settings: Homo sapiens, MCF7, 144 h; remark: listed apart in the source
MCF7 [25] = experiment: cells; settings: Homo sapiens, MCF7, 144 h; remark: listed apart in the source
SW480 [26] = experiment: Antitumor activity against human SW480 cells xenografted in BALB/c nude mouse assessed as reduction in tumor weight at 20 mg/kg, ip in presence of 30 mg/kg, iv 2(((2-(2,4-dichlorobenzyl)oxy)naphthalen-1-yl)methyl)amino)ethan-1-ol; type: functional, organism-based
MCF7 [27] = experiment: Antagonistic cytotoxicity against human MCF7 cells in presence of 30 uM 3-Chloro-4-methoxy-N-((4-(oxazolo[4,5-b]pyridin-2-yl)phenyl)carbamothioyl)benzamide measured after 6 days by SRB assay; type: functional, cell-based; settings: MCF7, 144 h
MCF7 [28] = experiment: Additive cytotoxicity against human MCF7 cells assessed as combination index measured after 6 days in presence of 5 uM KU55933 by SRB assay; type: functional; settings: time 6 day
MCF7 [29] = experiment: Antagonistic cytotoxicity against human MCF7 cells assessed as combination index in presence of 30 uM 3-Chloro-4-methoxy-N-((4-(oxazolo[4,5-b]pyridin-2-yl)phenyl)carbamothioyl)benzamide measured after 6 days by SRB assay; type: functional; settings: time 6 day
MCF7 [30] = experiment: Additive cytotoxicity against human MCF7 cells measured after 6 days in presence of 5 uM KU55933 by SRB assay; type: functional; settings: time 6 day
SW480 [31] = experiment: Antitumor activity against human SW480 cells xenografted in BALB/c nude mouse assessed as reduction in tumor weight at 20 mg/kg, ip; type: functional, organism-based
NCI-H1299 [32] = experiment: Antagonistic cytotoxicity against human NCI-H1299 cells measured in presence of 50 nM AZD0156 after 2 days by SRB assay; type: functional, cell-based; settings: NCI-H1299, 48 h
NCI-H1299 [33] = experiment: Antagonistic cytotoxicity against human NCI-H1299 cells assessed as combination index measured in presence of 50 nM AZD0156 after 2 days by SRB assay; type: functional; settings: time 2 day
NCI-H1299 [34] = experiment: Additive cytotoxicity against human NCI-H1299 cells measured in presence of 5 uM KU60019 after 2 days by SRB assay; type: functional, cell-based; settings: NCI-H1299, 48 h
NCI-H1299 [35] = experiment: Additive cytotoxicity against human NCI-H1299 cells assessed as combination index measured in presence of 5 uM KU60019 after 2 days by SRB assay; type: functional; settings: time 2 day

COc1cc([C@@H]2c3cc4c(cc3[C@@H](O[C@@H]3O[C@@H]5CO[C@@H](C)O[C@H]5[C@H](O)[C@H]3O)[C@H]3COC(=O)[C@H]23)OCO4)cc(OC)c1O [ETOPOSIDE]
Activity (MCF7 [1]): Active
inhibition [2]: 53%
CI (NCI-H1299 [3]): 0.84
inhibition [4]: Active
inhibition [5]: Active
inhibition [6]: 25%
IC50 (MCF7 [7]): 0.56 µM
CI (MCF7 [8]): 0.73
Activity (MCF7 [9]): Active
CI (NCI-H1299 [10]): 0.82
IC50 (SW480 [11]): < 0.01 µM
CI (SW480 [12]): 0.22
inhibition [13]: Active
Activity (MCF7 [14]): Active
CI (MCF7 [15]): 0.84
Activity (MCF7 [16]): Active
inhibition [17]: 41%
IC50 (NCI-H1299 [18]): 8.86 µM
IC50 (SW480 [19]): 3.6 µM
CI (MCF7 [20]): 1.01
inhibition [21]: Active
IC50 (NCI-H1299 [22]): 5.75 µM
Activity (MCF7 [23]): Dde
IC50 (MCF7 [24]): 0.59 µM

CCc1c2c(nc3ccc(OC(=O)N4CCC(N5CCCCC5)CC4)cc13)-c1cc3c(c(=O)n1C2)COC(=O)[C@]3(O)CC [IRINOTECAN]
IC50 (MCF7 [25]): 0.21 µM
Activity (SW480 [26]): Active
IC50 (MCF7 [27]): 2.42 µM
CI (MCF7 [28]): 0.18
CI (MCF7 [29]): 1.49
CI (MCF7 [30]): 0.16
IC50 (SW480 [11]): < 0.12 µM
CI (SW480 [12]): 0.25
Activity (SW480 [31]): Active
CI (MCF7 [15]): 0.78
IC50 (NCI-H1299 [32]): 15.2 µM
CI (NCI-H1299 [33]): 1.13
IC50 (NCI-H1299 [34]): 9.83 µM
CI (NCI-H1299 [35]): 1.04
